Test results: US20250171420A1 (Monte Rosa Therapeutics, Inc., priority 2022, published 2025)

How the values were obtained:
CK1α = target: T1, CK1α (Homo sapiens, UniProt P48729); experiment: CK1α NanoBit Assay (HiBiT-tagged CSNK1A1, HEK293 clonal lines); type: cell-based; settings: HEK293 HiBiT-CSNK1A1/LgBiT cells, 24 h incubation
T1 construct: HEK293 clonal lines with CRISPR KI HiBiT tag on CSNK1A1
In short: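 HEK293 clones carrying a CRISPR knock-in HiBiT tag on CSNK1A1 and stably expressing LgBiT are treated with compound for 24 hours at 37° C, 5% CO2, then read by luminescence. Response is normalized as 100*(S−N)/(P−N) against plate negative and positive controls, and DC50 values are derived.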

CRBN/DDB1 = CRBN/DDB1 (Homo sapiens, UniProt Q96SW2); experiment: HTRF binding assay (displacement of Cy5-thalidomide probe from CRBN/DDB1); settings: CRBN/DDB1 2.5 nM, Cy5-Thalidomide 100 nM, 30 min; geometric mean; read-out: HTRF_Thali_Disp_DR_geo_IC50
In short: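 Compounds in a 10-point threefold dilution series were incubated 30 min at ambient temperature with 2.5 nM CRBN/DDB1, 100 nM Cy5-thalidomide probe and terbium anti-His donor (HEPES/NaCl/TCEP/EDTA/Tween20 buffer). IC50 came from 4-parameter fits of the 665/620 nm HTRF ratio; Ki used Cheng-Prusoff on geometric-mean IC50.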

SKCO1 cell line = experiment: Growth inhibition, CyQUANT Direct Cell Proliferation Assay, SKCO1; type: cell-based; settings: Homo sapiens, SK-CO-1; SKCO1, 120 to 168 hours; read-out: SKCO1 GI50
Protocol: (§1) SKCO1, LS180, and LS174T cell lines were purchased from ATCC. CW2 cell line was purchased from Riken. GP2D cell line was purchased from Sigma/ECACC. All cell lines were cultured in manufacturer's recommended media at 37° C., 5% CO2. Briefly, cells were suspended in 200 μL of media and seeded at 300 to 1,800 cells per well in tissue culture treated 96-well plates with black walls and clear bottom. Plates were incubated overnight and initial (To) read was performed the following day using CyQUANT Direct Cell Proliferation Assay Kit (Thermo Fisher Scientific) according to manufacturer's protocol. All compounds were solubilized in DMSO and prepared at 3-fold serial dilution, using 9 points starting at 30 μM as highest concentration, administered to cells and incubated for 120 to 168 hours, at which point CyQUANT assay measurement was performed using Acumen Cellista instrument (Ex/Em 480/520 nm). Media-only wells were used as blank, and 0.3% DMSO was used as DMSO-treated cell control. Growth inhibition (percent response) was calculated using the following formula in Excel: “=if ([Compound treated Day N]>[Untreated Day 0, AVG], ([Compound treated Day N]−[Untreated Day 0, AVG])/([Untreated Day N]−[Untreated Day 0, AVG])*100, ([Compound Treated Day N]−[Untreated Day 0, AVG])/([Untreated Day 0, AVG])*100)”. GI50 is the response corresponding to the 50% of untreated control.
(§2) GI50 data are reported in Tables 4a, 4b, 4c, 4d, and 4e for compounds in Table 1. In Tables 4a, 4b, 4c, 4d, and 4e below, According to the code, A represents a GI50 value of ≤0.1 μM, B represents a GI50 value>0.1 μM and ≤1 μM, C represents an GI50 value>1 μM.

CW2 cell line = experiment: Growth inhibition, CyQUANT Direct Cell Proliferation Assay, CW2; type: cell-based; settings: Homo sapiens, CW-2; CW2, 120 to 168 hours; read-out: CW2 GI50
Protocol: as §1, §2

GP2D cell line = experiment: Growth inhibition, CyQUANT Direct Cell Proliferation Assay, GP2D; type: cell-based; settings: GP2D, 120 to 168 hours; read-out: GP2D GI50
Protocol: as §1, §2

LS180 cell line = experiment: Growth inhibition, CyQUANT Direct Cell Proliferation Assay, LS180; type: cell-based; settings: Homo sapiens; LS180, 120 to 168 hours; read-out: LS180 GI50
Protocol: as §1, §2

LS174T cell line = experiment: Growth inhibition, CyQUANT Direct Cell Proliferation Assay, LS174T; type: cell-based; settings: Homo sapiens, 120 to 168 hours, read-out: LS174T GI50
Protocol: as §1, §2

T1 sequence (P48729 whole entry): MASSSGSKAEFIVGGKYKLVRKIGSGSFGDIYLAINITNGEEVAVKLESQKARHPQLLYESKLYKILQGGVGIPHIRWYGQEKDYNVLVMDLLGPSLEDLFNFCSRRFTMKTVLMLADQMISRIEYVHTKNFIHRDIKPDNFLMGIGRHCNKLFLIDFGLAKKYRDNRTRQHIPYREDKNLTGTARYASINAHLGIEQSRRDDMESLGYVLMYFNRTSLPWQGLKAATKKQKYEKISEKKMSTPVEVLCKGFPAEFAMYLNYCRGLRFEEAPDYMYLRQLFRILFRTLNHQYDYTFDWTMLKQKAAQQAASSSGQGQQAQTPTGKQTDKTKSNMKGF
T1 sequence (Q96SW2 whole entry, further chain): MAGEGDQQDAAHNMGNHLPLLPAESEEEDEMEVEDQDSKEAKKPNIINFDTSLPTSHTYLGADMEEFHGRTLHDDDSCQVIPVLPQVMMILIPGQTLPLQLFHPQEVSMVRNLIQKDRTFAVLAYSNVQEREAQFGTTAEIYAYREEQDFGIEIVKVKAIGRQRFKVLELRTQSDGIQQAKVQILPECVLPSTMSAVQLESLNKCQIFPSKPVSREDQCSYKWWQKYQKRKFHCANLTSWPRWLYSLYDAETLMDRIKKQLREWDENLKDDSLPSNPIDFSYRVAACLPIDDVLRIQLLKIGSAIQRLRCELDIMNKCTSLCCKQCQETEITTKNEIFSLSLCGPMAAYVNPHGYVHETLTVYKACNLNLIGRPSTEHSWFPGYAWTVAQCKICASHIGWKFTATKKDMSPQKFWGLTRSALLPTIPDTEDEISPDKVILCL
T1 sequence (Q16531 2-1140 partner limits assumed): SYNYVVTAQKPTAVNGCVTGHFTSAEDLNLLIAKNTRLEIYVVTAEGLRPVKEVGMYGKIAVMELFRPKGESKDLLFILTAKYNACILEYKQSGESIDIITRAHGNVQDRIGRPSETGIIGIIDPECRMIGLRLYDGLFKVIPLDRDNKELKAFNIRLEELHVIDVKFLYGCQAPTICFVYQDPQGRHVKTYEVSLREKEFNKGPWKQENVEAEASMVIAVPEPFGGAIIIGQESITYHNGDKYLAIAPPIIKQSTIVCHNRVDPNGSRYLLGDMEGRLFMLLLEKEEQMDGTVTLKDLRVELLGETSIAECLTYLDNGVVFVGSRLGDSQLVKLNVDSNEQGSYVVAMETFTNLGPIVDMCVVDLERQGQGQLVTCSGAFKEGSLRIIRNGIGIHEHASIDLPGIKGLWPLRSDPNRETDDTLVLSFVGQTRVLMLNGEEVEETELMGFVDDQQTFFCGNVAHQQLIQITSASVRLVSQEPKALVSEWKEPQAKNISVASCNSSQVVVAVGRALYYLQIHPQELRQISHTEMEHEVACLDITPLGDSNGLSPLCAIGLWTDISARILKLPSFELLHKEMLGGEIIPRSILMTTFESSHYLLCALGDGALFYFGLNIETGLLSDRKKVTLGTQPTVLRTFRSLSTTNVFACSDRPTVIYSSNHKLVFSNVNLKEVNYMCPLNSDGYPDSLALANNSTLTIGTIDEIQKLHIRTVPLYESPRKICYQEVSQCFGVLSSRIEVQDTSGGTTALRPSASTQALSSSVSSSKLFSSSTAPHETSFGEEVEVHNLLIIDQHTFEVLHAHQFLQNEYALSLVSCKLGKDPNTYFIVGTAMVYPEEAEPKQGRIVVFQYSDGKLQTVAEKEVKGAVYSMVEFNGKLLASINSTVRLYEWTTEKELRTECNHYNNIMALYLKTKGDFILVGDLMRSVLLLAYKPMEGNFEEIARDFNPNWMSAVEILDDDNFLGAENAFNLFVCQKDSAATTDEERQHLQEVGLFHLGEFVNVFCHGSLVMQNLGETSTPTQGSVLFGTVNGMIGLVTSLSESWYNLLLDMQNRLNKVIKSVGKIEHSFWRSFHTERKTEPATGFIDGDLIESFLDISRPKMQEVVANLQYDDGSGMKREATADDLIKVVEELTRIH
Chain of CRBN/DDB1 (Q96SW2 whole entry, species assumed): as the sequence (Q96SW2 whole entry, further chain) above
Chain of CRBN/DDB1 (Q16531 whole entry partner, species assumed): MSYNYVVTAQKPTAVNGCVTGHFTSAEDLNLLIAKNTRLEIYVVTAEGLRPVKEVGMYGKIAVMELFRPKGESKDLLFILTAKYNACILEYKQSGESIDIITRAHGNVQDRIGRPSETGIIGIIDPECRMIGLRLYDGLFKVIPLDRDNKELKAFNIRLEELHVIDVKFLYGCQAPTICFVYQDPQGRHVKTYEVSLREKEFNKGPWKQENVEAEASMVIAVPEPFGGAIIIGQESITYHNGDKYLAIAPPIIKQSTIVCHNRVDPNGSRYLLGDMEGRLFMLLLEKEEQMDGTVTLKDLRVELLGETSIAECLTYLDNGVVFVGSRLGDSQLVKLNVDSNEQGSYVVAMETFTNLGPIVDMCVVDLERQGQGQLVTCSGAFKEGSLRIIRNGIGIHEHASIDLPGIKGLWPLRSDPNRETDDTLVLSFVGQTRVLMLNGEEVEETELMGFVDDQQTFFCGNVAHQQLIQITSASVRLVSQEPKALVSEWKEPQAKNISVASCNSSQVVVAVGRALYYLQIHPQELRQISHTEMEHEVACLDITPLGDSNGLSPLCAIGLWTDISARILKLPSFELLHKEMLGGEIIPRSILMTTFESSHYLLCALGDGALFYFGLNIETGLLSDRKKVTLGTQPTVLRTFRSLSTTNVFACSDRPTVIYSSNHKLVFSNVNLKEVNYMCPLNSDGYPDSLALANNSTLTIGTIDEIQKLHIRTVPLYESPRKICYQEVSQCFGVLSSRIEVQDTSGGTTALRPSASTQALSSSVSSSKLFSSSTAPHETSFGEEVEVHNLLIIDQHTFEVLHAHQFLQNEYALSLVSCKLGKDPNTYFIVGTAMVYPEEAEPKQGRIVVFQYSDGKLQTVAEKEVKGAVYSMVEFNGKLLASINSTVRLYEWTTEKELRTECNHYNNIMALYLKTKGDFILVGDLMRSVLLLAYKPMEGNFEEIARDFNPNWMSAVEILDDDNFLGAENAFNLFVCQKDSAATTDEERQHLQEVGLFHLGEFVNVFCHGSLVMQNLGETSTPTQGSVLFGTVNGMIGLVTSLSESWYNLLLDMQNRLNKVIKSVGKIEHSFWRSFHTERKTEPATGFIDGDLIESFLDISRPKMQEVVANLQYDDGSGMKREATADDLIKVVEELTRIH

Row | SMILES | DC50 (CK1α) [µM] | IC50 (CRBN/DDB1) [nM] | also measured
1 | CN(C)C[C@@H]1Cc2ccccc2N1C(=O)Nc1ccc2c(c1)CN(C1CCC(=O)NC1=O)C2=O (stereo partly drawn) [Compound 323, (2S)-2-((dimethylamino)methyl)-N-(2-(2,6-dioxopiperidin-3-yl)-1-oxoisoindolin-5-yl)indoline-1-carboxamide] | 0.1 to 1 | 100 to 1000 | –
2 | CC1(c2ccccc2)CN(C(=O)Nc2ccc3c(c2)CN(C2CCC(=O)NC2=O)C3=O)C1 (stereo not shown) [Compound 109, N-(2-(2,6-dioxopiperidin-3-yl)-1-oxoisoindolin-5-yl)-3-methyl-3-phenylazetidine-1-carboxamide] | 0.1 to 1 | 100 to 1000 | –
3 | C[C@@H]1Cc2ccccc2N1C(=O)Nc1cc2c(cc1F)C(=O)N(C1CCC(=O)NC1=O)C2 (stereo partly drawn) [Compound 293, (2R)—N-(2-(2,6-dioxopiperidin-3-yl)-6-fluoro-1-oxoisoindolin-5-yl)-2-methylindoline-1-carboxamide] | < 0.1 | 100 to 1000 | –
4 | C[C@@H]1Cc2ccc(F)cc2N1C(=O)Nc1ccc2c(c1)CN(C1CCC(=O)NC1=O)C2=O (stereo partly drawn) [Compound 356, (2R)—N-(2-(2,6-dioxopiperidin-3-yl)-1-oxoisoindolin-5-yl)-6-fluoro-2-methylindoline-1-carboxamide] | < 0.1 | 100 to 1000 | –
5 | COCC1c2ccc(C)cc2CN1C(=O)Nc1ccc2c(c1)CN(C1CCC(=O)NC1=O)C2=O (stereo not shown) [Compound 331, N-(2-(2,6-dioxopiperidin-3-yl)-1-oxoisoindolin-5-yl)-1-(methoxymethyl)-5-methylisoindoline-2-carboxamide] | < 0.1 | 100 to 1000 | –
6 | COCc1ccc2c(c1)CCN2C(=O)Nc1ccc2c(c1)CN(C1CCC(=O)NC1=O)C2=O (stereo not shown) [Compound 330, N-(2-(2,6-dioxopiperidin-3-yl)-1-oxoisoindolin-5-yl)-5-(methoxymethyl)indoline-1-carboxamide] | < 0.1 | 100 to 1000 | –
7 | O=C1CCC(N2Cc3cc(NC(=O)N4CCc5ccc(-n6cccn6)cc54)ccc3C2=O)C(=O)N1 (stereo not shown) [Compound 290] | < 0.1 | 100 to 1000 | –
8 | COC[C@@H]1Cc2c(cccc2C(F)(F)F)N1C(=O)Nc1ccc2c(c1)CN(C1CCC(=O)NC1=O)C2=O (stereo partly drawn) [Compound 325, (2S)—N-(2-(2,6-dioxopiperidin-3-yl)-1-oxoisoindolin-5-yl)-2-(methoxymethyl)-4-(trifluoromethyl)indoline-1-carboxamide] | < 0.1 | 100 to 1000 | –
9 | O=C1CCC(N2Cc3cc(NC(=O)N4CCc5cc(-n6cccn6)ccc54)ccc3C2=O)C(=O)N1 (stereo not shown) [Compound 355] | < 0.1 | < 100 | –
10 | O=C1CCC(N2Cc3cc(NC(=O)N4CC5(CCC5)c5ccccc54)ccc3C2=O)C(=O)N1 (stereo not shown) [Compound 188] | < 0.1 | 100 to 1000 | –

Second part, led by results:

Row | DC50 (CK1α) [µM] | IC50 (CRBN/DDB1) [nM] | SMILES | also measured
11 | < 0.1 | 100 to 1000 | CC1(c2ccc3c(c2)CCN3C(=O)Nc2ccc3c(c2)CN(C2CCC(=O)NC2=O)C3=O)CC1 (stereo not shown) [Compound 344, N-(2-(2,6-dioxopiperidin-3-yl)-1-oxoisoindolin-5-yl)-5-(1-methylcyclopropyl)indoline-1-carboxamide] | GI50 (SKCO1 cell line): < 100 nM; GI50 (CW2 cell line): < 100 nM; GI50 (GP2D cell line): < 100 nM; GI50 (LS180 cell line): 100 to 1000 nM; GI50 (LS174T cell line): 100 to 1000 nM
12 | < 0.1 | 100 to 1000 | O=C1CCC(N2Cc3cc(NC(=O)N4CCc5cccc(Cl)c54)ccc3C2=O)C(=O)N1 (stereo not shown) [Compound 152, 7-chloro-N-(2-(2,6-dioxopiperidin-3-yl)-1-oxoisoindolin-5-yl) indoline-1-carboxamide] | –
13 | < 0.1 | 100 to 1000 | O=C1CCC(N2Cc3cc(NC(=O)N4c5ccc(F)cc5CC45COC5)ccc3C2=O)C(=O)N1 (stereo not shown) [Compound 306, N-(2-(2,6-dioxopiperidin-3-yl)-1-oxoisoindolin-5-yl)-5-fluorospiro[indoline-2,3′-oxetane]-1-carboxamide] | –
14 | < 0.1 | 100 to 1000 | O=C1CCC(N2Cc3cc(NC(=O)N4c5ccccc5CC45COC5)ccc3C2=O)C(=O)N1 (stereo not shown) [Compound 322, N-(2-(2,6-dioxopiperidin-3-yl)-1-oxoisoindolin-5-yl)spiro[indoline-2,3′-oxetane]-1-carboxamide] | –
15 | < 0.1 | 100 to 1000 | COC[C@@H]1Cc2cc(C(F)(F)F)ccc2N1C(=O)Nc1ccc2c(c1)CN(C1CCC(=O)NC1=O)C2=O (stereo partly drawn) [Compound 318, (2S)—N-(2-(2,6-dioxopiperidin-3-yl)-1-oxoisoindolin-5-yl)-2-(methoxymethyl)-5-(trifluoromethyl)indoline-1-carboxamide] | –
16 | < 0.1 | > 1000 | O=C1CC[C@@H](N2Cc3cc(NC(=O)N4c5ccccc5C[C@H]4C(F)(F)F)ccc3C2=O)C(=O)N1 (single isomer, unassigned) [Compound 359] | –
17 | < 0.1 | 100 to 1000 | COCC1c2cc(C3CC3)ccc2CN1C(=O)Nc1ccc2c(c1)CN(C1CCC(=O)NC1=O)C2=O (stereo not shown) [Compound 333, 6-cyclopropyl-N-(2-(2,6-dioxopiperidin-3-yl)-1-oxoisoindolin-5-yl)-1-(methoxymethyl)isoindoline-2-carboxamide] | –
18 | < 0.1 | 100 to 1000 | O=C1CCC(N2Cc3cc(NC(=O)N4CCc5ccncc54)ccc3C2=O)C(=O)N1 (stereo not shown) [Compound 105, N-(2-(2,6-dioxopiperidin-3-yl)-1-oxoisoindolin-5-yl)-2,3-dihydro-1H-pyrrolo[2,3-c]pyridine-1-carboxamide] | –
19 | < 0.1 | 100 to 1000 | COC[C@@H]1Cc2c(F)cccc2N1C(=O)Nc1ccc2c(c1)CN(C1CCC(=O)NC1=O)C2=O (stereo partly drawn) [Compound 314, (2S)—N-(2-(2,6-dioxopiperidin-3-yl)-1-oxoisoindolin-5-yl)-4-fluoro-2-(methoxymethyl)indoline-1-carboxamide] | –
20 | < 0.1 | 100 to 1000 | CC1Cc2cc(C(F)(F)F)ncc2N1C(=O)Nc1ccc2c(c1)CN(C1CCC(=O)NC1=O)C2=O (stereo not shown) [Compound 353, N-(2-(2,6-dioxopiperidin-3-yl)-1-oxoisoindolin-5-yl)-2-methyl-5-(trifluoromethyl)-2,3-dihydro-1H-pyrrolo[2,3-c]pyridine-1-carboxamide] | –
21 | < 0.1 | 100 to 1000 | CC1c2ccccc2CCN1C(=O)Nc1ccc2c(c1)CN(C1CCC(=O)NC1=O)C2=O (stereo not shown) [Compound 216, N-(2-(2,6-dioxopiperidin-3-yl)-1-oxoisoindolin-5-yl)-1-methyl-3,4-dihydroisoquinoline-2(1H)-carboxamide] | –
22 | < 0.1 | 100 to 1000 | CC(C)C1CN(C(=O)Nc2ccc3c(c2)CN(C2CCC(=O)NC2=O)C3=O)c2ccccc21 (stereo not shown) [Compound 203, N-(2-(2,6-dioxopiperidin-3-yl)-1-oxoisoindolin-5-yl)-3-isopropylindoline-1-carboxamide] | –
23 | < 0.1 | 100 to 1000 | O=C1CCC(N2Cc3cc(NC(=O)N4c5cccc(F)c5C[C@H]4COCC(F)(F)F)ccc3C2=O)C(=O)N1 (stereo partly drawn) [Compound 300, (2S)—N-(2-(2,6-dioxopiperidin-3-yl)-1-oxoisoindolin-5-yl)-4-fluoro-2-((2,2,2-trifluoroethoxy)methyl)indoline-1-carboxamide] | –
24 | < 0.1 | 100 to 1000 | O=C1CCC(N2Cc3cc(NC(=O)N4CCc5ccc(C6CCC6)cc54)ccc3C2=O)C(=O)N1 (stereo not shown) [Compound 358, 6-cyclobutyl-N-(2-(2,6-dioxopiperidin-3-yl)-1-oxoisoindolin-5-yl)indoline-1-carboxamide] | –
25 | < 0.1 | > 1000 | O=C1CCC(N2Cc3cc(NC(=O)N4CCc5cc(Cl)ccc54)ccc3C2=O)C(=O)N1 (stereo not shown) [Compound 197, 5-chloro-N-(2-(2,6-dioxopiperidin-3-yl)-1-oxoisoindolin-5-yl)indoline-1-carboxamide] | –
